Assay results reported in patent US8530648B2, “Diaza-spiro[5.5]undecanes” (Novartis AG, priority 2009, dated 2013).

Assays:
hOx1R [1] = biological target: T1, hOx1R (Homo sapiens (Human), UniProt O43613); assay: Calcium accumulation in cells (FLIPR), hOx1R; assay type: cell-based; details: inhibition of orexin A induced calcium accumulation, Cheng and Prusoff correction
How it was run: (§1)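 Cells expressing human orexin 1 or 2 receptor, serum-deprived overnight, loaded with Fluo-4-AM (2 μM) plus 0.1 mM probenecid, pH 7.4 HEPES buffer with 1% BSA.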

hOx2R [2] = biological target: T2, hOx2R (Homo sapiens (Human), UniProt O43614); assay: Calcium accumulation in cells (FLIPR), hOx2R; assay type: cell-based; details: inhibition of orexin A induced calcium accumulation, Cheng and Prusoff correction
T2 sequence (O43614 whole entry): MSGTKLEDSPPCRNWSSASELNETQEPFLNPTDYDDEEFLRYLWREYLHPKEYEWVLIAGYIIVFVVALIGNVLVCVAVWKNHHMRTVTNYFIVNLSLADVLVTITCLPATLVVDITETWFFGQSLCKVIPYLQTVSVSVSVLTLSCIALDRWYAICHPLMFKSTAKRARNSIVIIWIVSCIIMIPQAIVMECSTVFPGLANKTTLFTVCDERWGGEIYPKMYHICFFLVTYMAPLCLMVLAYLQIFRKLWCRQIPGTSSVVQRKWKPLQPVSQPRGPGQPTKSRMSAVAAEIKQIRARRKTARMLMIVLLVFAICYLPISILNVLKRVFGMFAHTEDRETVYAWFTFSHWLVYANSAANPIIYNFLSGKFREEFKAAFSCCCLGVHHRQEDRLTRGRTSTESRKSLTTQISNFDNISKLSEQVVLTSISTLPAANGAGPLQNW
How it was run: as §1

hOx1R [3] = biological target: T1, hOx1R; assay: Radioligand binding assay, [125I]orexin A, hOx1R; details: radioligand [125I]orexin A, competition
Procedure: (§2) For crude cell membrane preparations, cells (CHO, Chinese hamster ovary or HEK, human embryonic kidney) expressing human orexin 1 or human orexin 2 receptors, were washed with HEPES (10 mM, pH 7.5), scraped off the culture plates with the same buffer, and centrifuged at 4° C. for 5 min at 2500×g. The cell pellet was either stored at −80° C. or used directly. Before the experiments, cell membranes were re-suspended in binding assay buffer (10 mM HEPES, 0.5% (w/v) bovine serum albumin, pH 7.5) by homogenisation with a Polytron homogeniser at 50 Hz for 20 s. Cell membranes were also used as made available by commercial providers.
(§3) In initial saturation experiments (to calculate Bmax), cell homogenates (150 μl) were incubated with 25-300 pM of the radioligand ([^125I]orexin A, 50 μl), 8 concentrations in triplicates in the presence or absence Orexin A (1 μM, 50 μl) to define non specific binding. Bound radioactivity was measured, and data were analysed with the program XLFIT or Graphpad Prism. Protein concentration was determined according to the Bradford/BioRad Protein Assay Kit.
(§4) In competition experiments, cell homogenates (150 μl) were incubated in assay buffer (10 mM HEPES, pH 7.5, 0.5% (w/v) bovine serum albumin, 5 mM MgCl2, 1 mM CaCl2, and tween 0.05%) for 1 h at room temperature with about 100 pM of the radioligand ([^125I]orexin A, 2100 Ci/mmole, 50 μl), and with various concentrations of compounds of the invention (50 μl) in triplicates; non-specific binding was determined in the presence of Orexin A (1 μM). Reactions were terminated by vacuum filtration, 3 washes of ice cold wash buffer (Tris-HCl pH 7.4/10 mM, with NaCl 154 mM).

hOx2R [4] = biological target: T2, hOx2R; assay: Radioligand binding assay, [125I]orexin A, hOx2R; details: radioligand [125I]orexin A, competition
Procedure: as §2, §3, §4

C75/Bl6 mice [5] = assay: Beam Braking Motor Activity Behavior (BBM); assay type: in vivo; details: 100 mg/kg p.o.; for BBM: induced inactivity vs controls: in the first 3 hours
Procedure: Beam Braking Motor Activity Behavior (BBM)
In the morning (9:00 h) of experimental day 1, the animals (C75/Bl6 mice; Janvier, France) are singly placed into home cages (Type 3, only containing sawdust, as well as food and water ad libitum). The cages are put into frames equipped with infrared beams to record the activity/inactivity of the mice (Moti 4.25, TSE Systems, Germany). The first 1.5 days are used for habituation (see Figure). Five minutes before lights-off of the second day, the animals (n=6/groups) are orally treated with vehicle, the compounds or a positive control (e.g. almorexant 100 mg/kg). Then, the animals stay in the setups for the following lights-off period and activity monitored.
The data are expressed as means±SEM (standard error of the means) of these difference scores for each hour as well as for the first four hours after administration, the time period which is most sensible to the effects of sleep-promoting compounds. Statistical analysis of the data is done with Systat 11 software. Since the data are normally distributed, analysis of variance (ANOVA) with treatment as between subject factor and the Dunnett test for post-hoc pairwise comparison were used. Furthermore, Student t-tests are used for single pair wise comparisons.

C75/Bl6 mice [6] = assay: Sleep Electroencephalography (Sleep EEG); assay type: in vivo; details: 100 mg/kg p.o.
Procedure: Sleep Electroencephalography (Sleep EEG):
The sleep pattern of tethered mice (C75/Bl6 mice; Janvier, France), chronically implanted with cortical EEG electrodes and an EMG electrode (neck muscle), is scored using the rodent scoring module of Somnologica software. Activity is monitored with an infrared sensor placed in the top of the cage and video recordings are collected with a day/night camera and infrared light during the dark phase (12 hours, lights off at 15:00). Mice are repeatedly acclimated to the recording setup and for a minimum of 3 days before each experiment. All treatments occur 5-10 min before lights off. On Day 1 mice are handled and the oral gavage introduced without application, on Day 2 vehicle is applied, on Day 3 compound is applied, and on Day 4 vehicle is applied. 22 hour recordings are scored in 10 s epochs and the total minutes per hour in Active wake (wake with locomotion), Quiet wake, and sleep are determined. Significance (p<0.05) is tested between vehicle and compound with Systat12 using the Restricted Maximum Likelihood test followed by post-hoc analysis using Fisher's Least Significant Differences test when either treatment or the interaction between treatment and hour had p<0.05.

T1 sequence (O43613 whole entry): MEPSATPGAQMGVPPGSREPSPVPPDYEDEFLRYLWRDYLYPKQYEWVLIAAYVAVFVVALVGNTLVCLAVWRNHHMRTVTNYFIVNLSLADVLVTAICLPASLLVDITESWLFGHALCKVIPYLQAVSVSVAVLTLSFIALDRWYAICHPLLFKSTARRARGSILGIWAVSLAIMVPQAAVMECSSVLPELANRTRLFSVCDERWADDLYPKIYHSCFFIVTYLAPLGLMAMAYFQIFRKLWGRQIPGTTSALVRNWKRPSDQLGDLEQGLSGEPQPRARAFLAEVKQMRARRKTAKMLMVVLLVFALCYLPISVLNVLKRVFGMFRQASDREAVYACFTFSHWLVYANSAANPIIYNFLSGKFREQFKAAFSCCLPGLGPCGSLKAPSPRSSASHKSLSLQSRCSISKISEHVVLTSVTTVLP

O=C1N(Cc2c[nH]c3ccccc23)CCCC12CCN(c1cnc3ccccc3n1)CC2 [Example 1, 2-((1H-indol-3-yl)methyl)-9-(quinoxalin-2-yl)-2,9-diazaspiro[5.5]undecan-1-one]
Ki (hOx1R [1]): 314 nM | Ki (hOx2R [2]): 30 nM | Kd (hOx1R [3]): 374 nM | Kd (hOx2R [4]): 42 nM | BBM: duration of induced inactivity (C75/Bl6 mice [5]): 6 to 7 h | BBM: induced inactivity vs controls (C75/Bl6 mice [5]): 15-22 minutes/hour | Sleep EEG: duration of reduced active wake and increased sleep (C75/Bl6 mice [6]): up to 7 hours | Sleep EEG: effect on quiet wake (C75/Bl6 mice [6]): minimal effects | Sleep EEG: reduction of active wake and increase of sleep vs controls (C75/Bl6 mice [6]): 7-16 minutes/hour

CNC(=O)[C@@H](c1ccccc1)N1CCc2cc(OC)c(OC)cc2[C@@H]1CCc1ccc(C(F)(F)F)cc1 [almorexant, reference compound]
BBM: duration of induced inactivity (C75/Bl6 mice [5]): 5 to 7 h | BBM: induced inactivity vs controls (C75/Bl6 mice [5]): 18-21 minutes/hour | Sleep EEG: duration of reduced active wake and increased sleep (C75/Bl6 mice [6]): 5 to 6 h | Sleep EEG: effect on quiet wake (C75/Bl6 mice [6]): without noticeable effect | Sleep EEG: reduction of active wake and increase of sleep vs controls (C75/Bl6 mice [6]): 9-16 minutes/hour
